This note sets out measurements from ChEMBL document CHEMBL5316289, “Structure-Based Rational Design of Small α-Helical Peptides with Broad-Spectrum Activity against Multidrug-Resistant Pathogens” (J Med Chem, 2023).

Where “and” joins values, the source holds several entries; their conditions need not be identical. Equal values may be shown once. Where only a bound is given, the exact number is not on record here.

Common to all, as to type: functional
The subject of test [1] is Staphylococcus aureus. Kind of test: Antibacterial activity against methicillin resistant Staphylococcus aureus ATCC BAA 1556 assessed as inhibition of bacterial growth incubated for 24 hrs by CLSI based broth microdilution method. (In general: Broth dilution looks for growth in wells or tubes with falling amounts of substance.)
The subject of test [2] is Staphylococcus aureus. Kind of test: Antibacterial activity against Staphylococcus aureus ATCC 29213 assessed as inhibition of bacterial growth incubated for 24 hrs by CLSI based broth microdilution method.
In another test the test system is Escherichia coli. The test is described as follows: Antibacterial activity against Escherichia coli ATCC 25922 assessed as inhibition of bacterial growth incubated for 24 hrs by CLSI based broth microdilution method.
The next test concerns Pseudomonas aeruginosa. Kind of test: Antibacterial activity against Pseudomonas aeruginosa […] assessed as inhibition of bacterial growth incubated for 24 hrs by CLSI based broth microdilution method.
A further test concerns Klebsiella pneumoniae. Kind of test: Antibacterial activity against Klebsiella pneumoniae ATCC BAA 1705 assessed as inhibition of bacterial growth incubated for 24 hrs by CLSI based broth microdilution method.

Usually MIC stands for the lowest concentration found to suppress growth. H-WRRWWRR-NH2: the MIC with Staphylococcus aureus [1] was 100 µg/mL; in the test on Staphylococcus aureus [2], 100 µg/mL; in the test on Escherichia coli it was > 100 µg/mL and > 83.3 µM; in the test with Pseudomonas aeruginosa, over 100 µg/mL; in the test with Klebsiella pneumoniae (read-out: MIC) it was over 100 µg/mL.
On to H-RWARRAWRAW-NH2, for which the MIC in the test on Staphylococcus aureus [1] was > 100 µg/mL and > 70.7 µM; in the test with Staphylococcus aureus [2] it was > 100 µg/mL and > 70.7 µM; with Escherichia coli, > 100 µg/mL and > 70.7 µM; with Pseudomonas aeruginosa, over 100 µg/mL; in the test with Klebsiella pneumoniae (read-out: MIC), over 100 µg/mL.
In the case of H-RWWRAAWRR-NH2, the MIC in the test with Staphylococcus aureus [1] is > 100 µg/mL and > 74.5 µM; in the test with Staphylococcus aureus [2] it was > 100 µg/mL and > 74.5 µM; in the test with Escherichia coli, > 100 µg/mL and > 74.5 µM; with Pseudomonas aeruginosa, over 100 µg/mL; in the test with Klebsiella pneumoniae (read-out: MIC), over 100 µg/mL.
For Ac-KWAKKWAKWWKK-NH2, the MIC with Staphylococcus aureus [1], with Escherichia coli, with Pseudomonas aeruginosa and with Klebsiella pneumoniae (read-out: MIC) was 100 µg/mL in each case.
For H-AAWRRWWRRA-NH2, the minimal inhibitory concentration (MIC) is > 100 µg/mL and > 70.7 µM in the test on Staphylococcus aureus [1]; > 100 µg/mL and > 70.7 µM with Staphylococcus aureus [2]; > 100 µg/mL and > 70.7 µM in the test on Escherichia coli; over 100 µg/mL with Pseudomonas aeruginosa; over 100 µg/mL in the test on Klebsiella pneumoniae (read-out: MIC).
For H-RWRRWWR-NH2, the minimal inhibitory concentration (MIC) in the test on Staphylococcus aureus [1] is 100 µg/mL; with Staphylococcus aureus [2], 100 µg/mL; in the test on Escherichia coli it was > 100 µg/mL and > 83.3 µM; with Pseudomonas aeruginosa it was over 100 µg/mL; with Klebsiella pneumoniae (read-out: MIC), over 100 µg/mL.
H-AWWRRAWRR-NH2: the MIC in the test with Staphylococcus aureus [1] is > 100 µg/mL and > 74.5 µM; in the test with Staphylococcus aureus [2], > 100 µg/mL and > 74.5 µM; with Escherichia coli, > 100 µg/mL and > 74.5 µM; in the test with Pseudomonas aeruginosa, over 100 µg/mL; in the test with Klebsiella pneumoniae (read-out: MIC), over 100 µg/mL.
For H-RRWWRRW-NH2, the minimal inhibitory concentration (MIC) was 100 µg/mL in the test on Staphylococcus aureus [1]; > 100 µg/mL and > 83.3 µM in the test on Escherichia coli; over 100 µg/mL in the test with Pseudomonas aeruginosa; over 100 µg/mL with Klebsiella pneumoniae (read-out: MIC).
For the substance Ac-RWIRRWIRWWR-NH2, the minimum inhibitory concentration (MIC) with Escherichia coli and with Klebsiella pneumoniae (read-out: MIC) was 100 µg/mL throughout.
H-KWAKKWAKWWKK-NH2: the MIC with Staphylococcus aureus [1] is 100 µg/mL; in the test on Staphylococcus aureus [2], 100 µg/mL; with Escherichia coli, > 100 µg/mL and > 59.8 µM; with Pseudomonas aeruginosa, over 100 µg/mL; in the test with Klebsiella pneumoniae (read-out: MIC), over 100 µg/mL.
As for H-RWWRRWAR-NH2, the minimum inhibitory concentration (MIC) with Staphylococcus aureus [1] was > 100 µg/mL and > 78.7 µM; with Staphylococcus aureus [2] it was > 100 µg/mL and > 78.7 µM; with Escherichia coli, > 100 µg/mL and > 78.7 µM; with Pseudomonas aeruginosa, over 100 µg/mL; in the test with Klebsiella pneumoniae (read-out: MIC), over 100 µg/mL.
With H-RAWRRWWRAA-NH2, the minimum inhibitory concentration (MIC) is > 100 µg/mL and > 70.7 µM in the test on Staphylococcus aureus [1]; > 100 µg/mL and > 70.7 µM in the test on Staphylococcus aureus [2]; > 100 µg/mL and > 70.7 µM with Escherichia coli; over 100 µg/mL with Pseudomonas aeruginosa; over 100 µg/mL with Klebsiella pneumoniae (read-out: MIC).
H-RWWRRAWAR-NH2: the MIC in the test on Staphylococcus aureus [1] was > 100 µg/mL and > 74.5 µM; with Staphylococcus aureus [2] it was > 100 µg/mL and > 74.5 µM; in the test with Escherichia coli it was > 100 µg/mL and > 74.5 µM; in the test with Pseudomonas aeruginosa it was over 100 µg/mL; in the test on Klebsiella pneumoniae (read-out: MIC), over 100 µg/mL.
Consider H-RWIRRWIRWWR-NH2, for which the minimal inhibitory concentration (MIC) in the test with Escherichia coli was 100 µg/mL; in the test on Klebsiella pneumoniae, 56.5 µM; in the test on Klebsiella pneumoniae (read-out: MIC), 100 µg/mL.
Consider H-ARRWWRRW-NH2, for which the minimal inhibitory concentration (MIC) with Staphylococcus aureus [1] is 100 µg/mL and > 78.7 µM; with Staphylococcus aureus [2], 100 µg/mL; with Escherichia coli, > 100 µg/mL and > 78.7 µM; with Pseudomonas aeruginosa it was over 100 µg/mL; with Klebsiella pneumoniae (read-out: MIC), over 100 µg/mL.
As to H-RWWRRAWR-NH2, the MIC in the test on Staphylococcus aureus [1] is > 100 µg/mL and > 78.7 µM; in the test with Staphylococcus aureus [2], > 100 µg/mL and > 78.7 µM; in the test with Escherichia coli, > 100 µg/mL and > 78.7 µM; in the test with Pseudomonas aeruginosa, over 100 µg/mL; with Klebsiella pneumoniae (read-out: MIC), over 100 µg/mL.
Consider H-RAWRRAWRAW-NH2, for which the minimum inhibitory concentration (MIC) with Staphylococcus aureus [1] is > 100 µg/mL and > 70.7 µM; with Staphylococcus aureus [2], > 100 µg/mL and > 70.7 µM; with Escherichia coli it was > 100 µg/mL and > 70.7 µM; with Pseudomonas aeruginosa it was over 100 µg/mL; with Klebsiella pneumoniae (read-out: MIC), over 100 µg/mL.
As to H-WRRWARRW-NH2, the minimum inhibitory concentration (MIC) in the test on Staphylococcus aureus [1] is > 100 µg/mL and > 78.7 µM; with Staphylococcus aureus [2], > 100 µg/mL and > 78.7 µM; in the test on Escherichia coli, > 100 µg/mL and > 78.7 µM; in the test with Pseudomonas aeruginosa it was over 100 µg/mL; in the test on Klebsiella pneumoniae (read-out: MIC) it was over 100 µg/mL.
Consider H-RRWRRWW-NH2, for which the MIC in the test on Staphylococcus aureus [1] was 100 µg/mL; with Staphylococcus aureus [2] it was 100 µg/mL; with Escherichia coli, > 100 µg/mL and > 83.3 µM; in the test on Pseudomonas aeruginosa, over 100 µg/mL; in the test on Klebsiella pneumoniae (read-out: MIC) it was over 100 µg/mL.
H-RAWRAWWRRA-NH2: the MIC is > 100 µg/mL and > 70.7 µM in the test with Staphylococcus aureus [1]; > 100 µg/mL and > 70.7 µM in the test with Staphylococcus aureus [2]; > 100 µg/mL and > 70.7 µM in the test with Escherichia coli; over 100 µg/mL in the test with Pseudomonas aeruginosa; over 100 µg/mL with Klebsiella pneumoniae (read-out: MIC).
On to H-RWWRRAWRA-NH2, for which the MIC in the test with Staphylococcus aureus [1] was > 100 µg/mL and > 74.5 µM; in the test with Staphylococcus aureus [2], > 100 µg/mL and > 74.5 µM; with Escherichia coli, > 100 µg/mL and > 74.5 µM; with Pseudomonas aeruginosa, over 100 µg/mL; with Klebsiella pneumoniae (read-out: MIC), over 100 µg/mL.
Consider H-RWWRRAWRAA-NH2, for which the MIC in the test on Staphylococcus aureus [1] was > 100 µg/mL and > 70.7 µM; with Staphylococcus aureus [2], > 100 µg/mL and > 70.7 µM; with Escherichia coli, > 100 µg/mL and > 70.7 µM; in the test on Pseudomonas aeruginosa, over 100 µg/mL; in the test with Klebsiella pneumoniae (read-out: MIC), over 100 µg/mL.
Consider H-RWARRWWRA-NH2, for which the minimal inhibitory concentration (MIC) in the test with Staphylococcus aureus [1] was > 100 µg/mL and > 74.5 µM; in the test with Staphylococcus aureus [2] it was > 100 µg/mL and > 74.5 µM; in the test with Escherichia coli, > 100 µg/mL and > 74.5 µM; with Pseudomonas aeruginosa, over 100 µg/mL; in the test with Klebsiella pneumoniae (read-out: MIC) it was over 100 µg/mL.
With H-RWARRWARWWR-NH2, the MIC in the test with Staphylococcus aureus [1] was 100 µg/mL; in the test on Escherichia coli, 100 µg/mL; in the test on Pseudomonas aeruginosa it was 100 µg/mL; with Klebsiella pneumoniae (read-out: MIC), over 100 µg/mL.
As for H-RAWRRWWRA-NH2, the MIC was > 100 µg/mL and > 74.5 µM in the test on Staphylococcus aureus [1]; > 100 µg/mL and > 74.5 µM in the test on Staphylococcus aureus [2]; > 100 µg/mL and > 74.5 µM in the test on Escherichia coli; over 100 µg/mL in the test with Pseudomonas aeruginosa; over 100 µg/mL in the test on Klebsiella pneumoniae (read-out: MIC).
In the case of H-RWWRRWR-NH2, the MIC with Staphylococcus aureus [1] was 100 µg/mL; in the test on Staphylococcus aureus [2] it was 100 µg/mL; with Escherichia coli, > 100 µg/mL and > 83.3 µM; in the test with Pseudomonas aeruginosa it was over 100 µg/mL; with Klebsiella pneumoniae (read-out: MIC) it was over 100 µg/mL.
With H-RWARRWWR-NH2, the MIC is > 100 µg/mL and > 78.7 µM in the test on Staphylococcus aureus [1]; > 100 µg/mL and > 78.7 µM in the test on Staphylococcus aureus [2]; > 100 µg/mL and > 78.7 µM in the test with Escherichia coli; over 100 µg/mL with Pseudomonas aeruginosa; over 100 µg/mL with Klebsiella pneumoniae (read-out: MIC).
For H-RWARRWARWWRR-NH2, the minimal inhibitory concentration (MIC) with Escherichia coli is > 100 µg/mL and > 54.3 µM; with Pseudomonas aeruginosa, 100 µg/mL; in the test with Klebsiella pneumoniae (read-out: MIC), over 100 µg/mL.
In the case of H-RAWRRWARAW-NH2, the MIC in the test with Staphylococcus aureus [1] is > 100 µg/mL and > 70.7 µM; in the test on Staphylococcus aureus [2], > 100 µg/mL and > 70.7 µM; in the test with Escherichia coli, > 100 µg/mL and > 70.7 µM; in the test on Pseudomonas aeruginosa it was over 100 µg/mL; in the test on Klebsiella pneumoniae (read-out: MIC) it was over 100 µg/mL.
Regarding H-RAARRWARWWR-NH2, the MIC is 100 µg/mL in the test with Staphylococcus aureus [1]; 100 µg/mL with Staphylococcus aureus [2]; > 100 µg/mL and > 63.7 µM in the test on Escherichia coli; over 100 µg/mL in the test on Pseudomonas aeruginosa; over 100 µg/mL in the test on Klebsiella pneumoniae (read-out: MIC).
